According to paper PMC4428838, “Optimization of Invasion-Specific Effects of Betulin Derivatives on Prostate Cancer Cells through Lead Development” (PLoS ONE, 2015):

Legend:
Type in all cases: cell-based
[1] = system: PC-3 cells; assay: Primary 3D screen in Matrigel ECM, morphometric image analysis (AMIDA) of invasion, growth and cell death; conditions: PC-3 in 3D Matrigel; for anti-invasive effects in 3D culture (in words): 0.03-1 μM
Method: Three standard of care compounds widely used against PrCa were added as controls; namely, the androgen receptor antagonist enzalutamide (MDV3100), the C17α-hydroxylase/C17,20-lyase inhibitor abiraterone (Zytiga), and the classic mitotic inhibitor paclitaxel. Treatments started at day 4, when well-differentiated round acini were established.
The live 3D cell cultures were then stained with reactive dyes Calcein AM to detect living, and ethidium homodimer to detect dead cells. Images (Fig 4A) were acquired with confocal microscope and image data were analyzed with the AMIDA software. The principles of morphometric image analysis are briefly outlined in S2 Fig.
Fig 4 Primary 3D screen. PC-3 cells were cultured in 3D Matrigel ECM for 4 days and treated for 6 days with 25 betulin derivatives (from 2D high throughput screens), DMSO/vehicle control, and three reference compounds. A) Representative maximum intensity projections of confocal microscope stack images for selected compound treatments at 300 nM concentration (5× objective, scale 100 μm). B) Three graphs showing the relative impact on three morphometric parameters for 7 betulin derivatives, DMSO control, and one control compound (paclitaxel). […] C) Hierarchical clustering was done using three morphological parameters derived from PC3 organoids: spheroid size (area), complexity and the number of dead cells. D) Wound healing curves of the two betulin derivatives 4 and 20, highlighting the 50% cut-off level (orange dashed line).
Next, statistical analyses were performed to interpret the complex image data (Fig 4B and 4C). For simplicity, we focused on only three, basic morphologic parameters from the multiparametric AMIDA readout (Fig 4B): 1) Area (indicating growth of organoids), 2) structural Complexity (as a measure of the intensity of invasion), and 3) Relative Area of dead cells within organoids (red signal as a measure of cytoxicity or apoptosis). Area (Size of organoids; Fig 4B, upper panel) was measured as the number of pixels within a segmented structure. […] Shape Complexity (Fig 4B, middle panel) was obtained using the structure size (area) and perimeter (number of border pixels). The more regular the shape of an organoid, the closer it is to a perfect circle, thus minimizing the perimeter relative to object size. […] Deviations from this average (residuals) were interpreted as a measure for the shape complexity of organoids. As a logical lower limit for this measure (represented by a perfect circle), we adjusted the intercept (height level) of the regression line to render all returned residuals as positive numbers.
All 3D cultures were done in growth factor-free Matrigel Basement-membrane Matrix (Corning Inc., New York, NY, USA) using 96-well Angiogenesis μ-plates (ibidi GmbH, Munich, Germany) as described before.[38] “Sandwich” assays in short: bottom wells of cooled Angiogenesis plates were filled with 10 μL 4 mg/mL Matrigel, centrifuged for 20 min 200 g and incubated at 37°C temperature for approximately 30–60 min or until the ECM had polymerized. 1,000–1,500 cells were mixed in 2 mg/mL ECM-medium, and 20 μL of cell suspension was added in each well. The plates were centrifuged for 10 min at 100 g, or until the cells had settled on top of the lower ECM. Finally, the outer wells and side reservoirs were filled with water for humidification, and the culture plates placed into the incubator for 3–4 h or overnight. The following day, 60 μL of cell culture medium were added; refreshed every third day by carefully aspirating the medium.

[2] = system: LAPC-4; assay: Secondary 3D screen (spheroid size, complexity, cell death); conditions: yellow and red clusters
Excerpt: (§1) Next, the 25 selected betulin derivatives depicted in Figs 1–3 including control compounds were again thoroughly tested across the same panel of prostate-derived cell lines already used in the preliminary, 2D high-throughput screen. The resulting dendrograms were either generated separately for each cell line (S4 Fig), combined into a single dendrogram (Fig 5A), or shown as reduced organoid sizes (area; Fig 5B).
(§2) Fig 5 Secondary 3D screens. Experimental betulin derivatives and control compounds were tested across a panel of prostate cancer lines (LNCaP, LAPC-4) and non-transformed, prostate epithelial cells (EP156T) in 3D culture. A) The dendrogram is based on three main morphological parameters and combines all data from primary and secondary 3D screens. […] B) Boxplots showing the impact of selected compounds on spheroid size (Area). Data scaling: as described in Fig 4 C) Effects of all betulin derivatives and control compounds on cell death (number of dead cells).
(§3) All 3D cultures were done in growth factor-free Matrigel Basement-membrane Matrix (Corning Inc., New York, NY, USA) using 96-well Angiogenesis μ-plates (ibidi GmbH, Munich, Germany) as described before.[38] “Sandwich” assays in short: bottom wells of cooled Angiogenesis plates were filled with 10 μL 4 mg/mL Matrigel, centrifuged for 20 min 200 g and incubated at 37°C temperature for approximately 30–60 min or until the ECM had polymerized. 1,000–1,500 cells were mixed in 2 mg/mL ECM-medium, and 20 μL of cell suspension was added in each well. The plates were centrifuged for 10 min at 100 g, or until the cells had settled on top of the lower ECM. Finally, the outer wells and side reservoirs were filled with water for humidification, and the culture plates placed into the incubator for 3–4 h or overnight. The following day, 60 μL of cell culture medium were added; refreshed every third day by carefully aspirating the medium. This “sandwich” setting allows almost unifocal alignment of cells and 3D structures in a single optical plane, thus reducing the time required for confocal stack imaging.
(§4) All control compounds were purchased from Selleck (Munich, Germany), except for staurosporine (Sigma-Aldrich, St. Louis, MO, USA) and Y-27632 (Tocris, Bristol, UK) and dissolved in dimethyl sulfoxide (DMSO) as a vehicle at 10 mM. In the primary and secondary 3D screens, experimental and control compound exposures were performed in triplicates. Four concentrations for each compound were applied (0.03, 0.1, 0.3 and 1 μM). Compound treatments were initiated four days after cell embedding, and continued for six days after which spheroids were stained and imaged.
(§5) Supplementary file pone.0126111.s004.eps: S4 Fig Secondary screens. Dendrograms for A) LNCaP, B) LAPC-4, and C) Ep156T betulin screens in 3D culture have been constructed using three main read-outs: spheroid size, spheroid complexity, and cell death. […] (EPS) Click here for additional data file.

[3] = system: PC-3, LNCaP, LAPC-4, Ep156T; assay: Primary and secondary 3D screens combined across the cell line panel; conditions: cell lines other than PC-3, 3D, 300 nM or lower (except compound 15)
Method: Fig 5 Secondary 3D screens. Experimental betulin derivatives and control compounds were tested across a panel of prostate cancer lines (LNCaP, LAPC-4) and non-transformed, prostate epithelial cells (EP156T) in 3D culture. A) The dendrogram is based on three main morphological parameters and combines all data from primary and secondary 3D screens. Effective compound treatments are indicated in red and yellow, yellow being the most invasion-specific. B) Boxplots showing the impact of selected compounds on spheroid size (Area). Data scaling: as described in Fig 4 C) Effects of all betulin derivatives and control compounds on cell death (number of dead cells).
In order to assist functional categorization of our betulin derivatives, we combined all data into a single dendrogram, shown in Fig 5A. In addition, multiparametric representation of all experimental data as a single heatmap is highly informative (S5 Fig) and a potent way to illustrate the effects of compounds on growth, structural complexity and cell death across multiple cell lines. […] However, at lower concentrations, these compounds may act as potent and specific inhibitors of cell invasion and motility.
Supplementary file pone.0126111.s005.eps: S5 Fig Primary and secondary screens. […] The main read-outs (Area = Size, Complexity = Invasiveness, Red = Cell death) are shown in their own columns. Data scaling: DMSO control has been given a value 0 whereas paclitaxel control is valued -100 or 100 depending on the read-out. Color key is located in the upper right corner. (EPS) Click here for additional data file.
Supplementary file pone.0126111.s006.tif: S6 Fig Confocal images from primary and secondary betulin screens. Viable cells have been stained with calcein AM (green) and dead cells with ethidium homodimer-2 (red) (5× objective, maximum intensity projections, scale bar = 100 μm). (TIF) Click here for additional data file.

[4] = system: Ep156T cell line; assay: Secondary 3D screen (spheroid size, complexity, cell death); conditions: at the highest concentration
Excerpt: as §1, §2, §3, §4, §5

[5] = system: actin cytoskeleton of PC-3, LNCaP and Ep156T spheroids; assay: F-actin cytoskeleton (phalloidin staining) in 3D spheroids; conditions: after 48 hours of exposure; seen in Ep156T acini and PC-3 spheroids, not LNCaP
Excerpt: […] […] For phenotypic comparisons, we tested a panel of reference compounds targeting Akt, Rac, ROCK, Src, and other pathways, broadly linked to the actin cytoskeleton.
Fig 8 3D morphologies of prostate spheroids, exposed to selected betulin derivatives and captured with a confocal microscope. Actin cytoskeleton (filamentous or F-actin) is stained green (phalloidin), nuclei with a red dye (confocal microscope images, 40× objective, scale bar shown for each panel on the right lower corner).

[6] = system: LNCaP organoids; assay: Secondary 3D screen (spheroid size, complexity, cell death); conditions: dendrogram clusters
Excerpt: as §1, §2, §3, §4, §5

Row | SMILES | anti-invasive effects in 3D culture (in words) ([1]; 6 days treatment) | efficacy in 3D LAPC-4 culture (dendrogram clusters) [2] | effects on the other cell lines at anti-invasive concentrations [3] | organization of actin cytoskeleton in 3D spheroids [5] | further results
1 | CC(C)[C@@H]1CC[C@]2(C(=O)O)CC[C@]3(C)C(CCC4[C@@]5(C)CCC(=O)C(C)(C)C5CC[C@]43C)C12 (stereo partly drawn) [Compound 3] | one of the most potent anti-invasive, growth inhibitory agents | most active | no noticeable effects on the other cell lines | – | concentration at which anti-invasive effects are seen in 3D ([1]; 6 days treatment): ≤ 300 nM
2 | C=C(C)[C@@H]1CC[C@]2(C(=O)O)CC[C@]3(C)C(CCC4[C@@]5(C)CCC(=O)C(C)(C)C5CC[C@]43C)C12 (stereo partly drawn) [Compound 2, betulonic acid] | did not show significant anti-invasive effects | – | – | – | response of Ep156T in 3D culture [4]: responded to betulonic acid
3 | CN[C@@H]1C[C@H]2O[C@@](C)([C@@H]1OC)n1c3ccccc3c3c4c(c5c6ccccc6n2c5c31)C(=O)NC4 [staurosporine, reference compound] | – | – | – | affected the cytoskeleton in a comparable fashion | –
4 | CNC(=O)c1ccc(N2C(=S)N(c3ccc(C#N)c(C(F)(F)F)c3)C(=O)C2(C)C)cc1F [enzalutamide, reference compound] | – | efficacy of all positive controls | – | – | effect on morphometric measures (area, complexity, dead cells) ([1]; paclitaxel at 30 and 100 nM): no noticeable effect; among the effective treatments in 3D LNCaP organoids [6]: among the effective treatments
5 | C=C(C)[C@@H]1CC[C@]2(C(=O)O)CC[C@]3(C)C(CCC4[C@@]5(C)Cc6nccnc6C(C)(C)C5CC[C@]43C)C12 (stereo partly drawn) [Compound 15] | most potent anti-invasive effects | – | no noticeable effects on the other cell lines | effectively disrupted the organization of actin cytoskeleton | concentration with strong anti-invasive effects in 3D ([1]; 6 days treatment): 1.0 µM; growth inhibition in 3D ([1]; at 1.0 μM): without any growth inhibition
